From EPA's CvTdb concentration-time database
Blank lines part the entries; values can stand above or below the molecule they belong to.

Assays:
Mouse [1] = test: concentration in plasma after dosing; details: 2.5 min; dosed: 2,4-Dichlorophenoxyacetic acid; 1.0 mg/kg; oral; Male; B6C3F1
Mouse [2] = test: concentration in plasma after dosing; details: 10 min; dosed: 2-Hydroxy-4-methoxybenzophenone; 500 mg/kg; oral; Female; B6C3F1
Mouse [3] = test: concentration in plasma after dosing; details: 10 min; dosed: 2-Hydroxy-4-methoxybenzophenone; 250 mg/kg; oral; Female; B6C3F1
Mouse [4] = test: concentration in plasma after dosing; details: dosed: 2-Hydroxy-4-methoxybenzophenone, 100 mg/kg, oral, Male, B6C3F1
Rat [5] = test: concentration in plasma after dosing; details: dosed: Methyleugenol, 37 mg/kg, iv, Female, F344
Rat [6] = test: concentration in brain after dosing; details: 6 h; dosed: Perfluorohexane-1-sulphonic acid – potassium salt; 16 mg/kg; oral; Female; F344
Rat [7] = test: concentration in kidney after dosing; details: dosed: Perfluorohexane-1-sulphonic acid – potassium salt, 16 mg/kg, oral
Rat [8] = test: concentration in brain after dosing; details: 6 h; dosed: Perfluorohexane-1-sulphonic acid – potassium salt; 16 mg/kg; oral; Female; Harlan Sprague Dawley
Rat [9] = test: concentration in plasma after dosing; details: dosed: Pyridine, 25 mg/kg, oral, Female, Harlan Sprague-Dawley
Rat [10] = test: concentration in brain after dosing; details: 2 min; dosed: alpha-Thujone; 50 mg/kg; oral; Male; Harlan Sprague Dawley
Rat [11] = test: concentration in plasma after dosing; details: 10 min; dosed: alpha-Thujone; 50 mg/kg; oral; Female; Harlan Sprague Dawley
Rat [12] = test: concentration in brain after dosing; details: 1.5 h; dosed: alpha-Thujone; 50 mg/kg; oral; Male; Harlan Sprague Dawley

SMILES: O=C(O)COc1ccc(Cl)cc1Cl [2,4-Dichlorophenoxyacetic acid]
concentration in plasma (Mouse [1]): 1730 ng/mL

concentration in plasma (Mouse [2]): 4250 ng/mL | concentration in plasma (Mouse [3]): 1290 ng/mL | concentration in plasma (Mouse [4]; 2.5 min): 64.5 ng/mL | concentration in plasma (Mouse [4]; 10 min): 161 ng/mL | concentration in plasma (Mouse [4]; 0.25 h): 352 ng/mL | concentration in plasma (Mouse [4]; 2 h): 173 ng/mL | concentration in plasma (Mouse [4]; 3 h): 105 ng/mL
SMILES: O=C(c1ccccc1)c1ccc(O)cc1O [2,4-Dihydroxybenzophenone]

concentration in plasma (Rat [5]; 5 min): 28900 ng/mL | concentration in plasma (Rat [5]; 3 h): 158 ng/mL
SMILES: C=CCc1ccc(OC)c(OC)c1 [Methyleugenol]

SMILES: O=S(=O)([O-])C(F)(F)C(F)(F)C(F)(F)C(F)(F)C(F)(F)C(F)(F)F.[K+] [Perfluorohexane-1-sulphonic acid – potassium salt]
concentration in brain (Rat [6]): 1620 ng/g | concentration in kidney (Rat [7]; 3 h, Female, F344): 29100 ng/g | concentration in kidney (Rat [7]; 3 h, Female, Harlan Sprague Dawley): 29000 ng/g | concentration in kidney (Rat [7]; 6 h, Female, F344): 37500 ng/g | concentration in kidney (Rat [7]; 6 h, Female, Harlan Sprague Dawley): 39200 ng/g | concentration in kidney (Rat [7]; 12 h, Female, F344): 41400 ng/g | concentration in kidney (Rat [7]; 12 h, Female, Harlan Sprague Dawley): 26200 ng/g | concentration in kidney (Rat [7]; 24 h, Female, F344): 38500 ng/g | concentration in kidney (Rat [7]; 24 h, Female, Harlan Sprague Dawley): 17200 ng/g | concentration in kidney (Rat [7]; 48 h, Female, Harlan Sprague Dawley): 7840 ng/g | concentration in kidney (Rat [7]; 96 h, Female, Harlan Sprague Dawley): 5860 ng/g | concentration in kidney (Rat [7]; 192 h, Female, F344): 16300 ng/g | concentration in kidney (Rat [7]; 192 h, Female, Harlan Sprague Dawley): 2010 ng/g | concentration in kidney (Rat [7]; 528 h, Female, F344): 12700 ng/g | concentration in kidney (Rat [7]; 1200 h, Male, Harlan Sprague Dawley): 5590 ng/g | concentration in brain (Rat [8]): 1100 ng/g

SMILES: c1ccncc1 [Pyridine]
concentration in plasma (Rat [9]; 1 h): 21400 ng/mL | concentration in plasma (Rat [9]; 8 h): 15200 ng/mL

SMILES: CC(C)[C@]12CC(=O)[C@H](C)[C@H]1C2 [alpha-Thujone]
concentration in brain (Rat [10]): 385 ng/g | concentration in plasma (Rat [11]): 835 ng/mL | concentration in brain (Rat [12]): 1800 ng/g
